The series is described as follows: Analytical immobilized pH gradient (IPG) gels for determining pI values. Type of series: physicochemical. The note with it: analytical IPG gel, pH interval 8.0 to 9.0, mixture of 8M urea and 1% CHAPS. From the text:
Preparation of Analytical Immobilized pH Gradient (IPG) Gels, for Determining the pI Values of the Main Component and of the Impurities
Gel dimension: 25×10 cm, 0, 5 mm thick; pH interval: 7.0 to 10.0.
The IPG ranges are set in a 5% T, 4% C polyacrylamide matrix, according to the preparation recipe disclosed in Ref. 110. After preparing the two limiting, acidic and basic mixtures, they are titrated (with a weak acid and a weak base) to pH values close to neutrality. This is important in order to ensure uniform polymerization and efficient monomer conversion throughout the preformed pH gradient. Upon gel washing in distilled water (3×30 min), all added titrants (as well as catalysts and ungrafted monomers) are efficiently removed. The gels are then equilibrated for 30 min in 2% glycerol solution, dried in air and reswollen in a mixture of 8M urea and 3.5% CHAPS, overnight. The sample is applied in surface wells at the anodic gel side in concentrations from 80 to 600 μg/track. […]
For exactly determining the pI value of the amide derivative of factor B0 and factor B1, the above procedure is repeated under the same conditions, in the pH interval from 8.0 to 9.0 using a mixture of 8M urea and 1% CHAPS. The so determined pI value of the amide derivative of factor B0 is 8.56, whilst the pI value of the amide derivative of factor B1 is 8.40.

For “6^B -decarboxy-6^B -(hydroxymethyl)-N^63 -3-(dimethyl-amino)propyl amide derivative of antibiotic A40926 factor B0 [amide derivative of factor B0]”, the pI value is 8.56. Next, “6^B -decarboxy-6^B -(hydroxymethyl)-N^63 -3-(dimethyl-amino)propyl amide derivative of antibiotic A40926 factor B1 [amide derivative of factor B1]”: 8.40.

Source of the values: patent US5939523A, “Purification of dalbaheptide antibiotics by isoelectric focusing” (Gruppo Lepetit SpA, priority 1995, dated 1999).
